Consider 2 compounds from patent publication US9549943B2, “A3 adenosine receptor ligands for use in treatment of a sexual dysfunction” (CAN-FITE BIOPHARMA LTD., priority 2012, dated 2017).

In test [1] the test system is patients with active rheumatoid arthritis (RA). As to the kind of experiment: Phase 2 study of oral CF101 added to weekly Methotrexate in rheumatoid arthritis; sexual effects. The format is in vivo, human. Conditions: CF101 0.1 mg or 1 mg tablets orally every 12 h for 12 weeks, with weekly MTX. On the procedure: Phase 2 study in patients with active rheumatoid arthritis (RA) (randomized, double-blind, placebo-controlled), treated in parallel with CF101 administrated orally when added to weekly Methotrexate (MTX). The patients were given CF101 either 0.1 mg or 1 mg tablets or placebo tablets, taken orally every 12 h for 12 weeks. Washout of other disease-modifying antirheumatic drugs (DMARDs), including biological agents was occurring prior to dosing.

The subject of test [2] is patients with moderated to severe Plaque Psoriasis (PS). As to the kind of experiment: Phase 2 study of oral CF101 in Plaque Psoriasis; sexual effects. The format is in vivo, human. To be noted: CF101 1 mg, 2 mg and 4 mg orally twice daily for 12 weeks. On the procedure:
In a further Phase 2 study, randomized, double-blind, dose-ranging, placebo-controlled study was conducted to determine safety and activity of CF101 administered orally in patients with moderated to severe Plaque Psoriasis (PS). CF101 was administered at 1 mg. 2 mg and 4 mg twice daily for 12 weeks.

In test [3] the test system is Patients with Moderate-to-Severe Dry Eye Disease. Put plainly: Phase 3 clinical study of oral CF101 in dry eye disease; patient-reported sexual effects. The format is in vivo, human. The text has this: The clinical study (the “Study”) was a Phase 3, Randomized, Double-Masked, Placebo-Controlled, Dose-Finding, Parallel-Group Study of the Safety and Efficacy of Daily CF101 Administered Orally in Patients with Moderate-to-Severe Dry Eye Disease, keratoconjunctivitis sicca (KCS). CF101 is an experimental pharmaceutical composition where the active ingredient is IB-MECA. The study had two primary objectives: (i) determine the efficacy of oral administered CF101, as compared to placebo, when administered at doses of either 0.1 mg or 1.0 mg (namely 0.1 and 1 mg of IB-MECA per each administration, respectively) twice daily for 24 weeks in patients with KCS, and (ii) determine the safety of this drug in the patients. Patients were randomized to receive pills of either CF101 0.1 mg, CF101 1.0 mg, or matching placebo, given orally twice daily (BID) for 24 weeks. A Screening Period of up to 4 weeks that includes a 2-week run-in period that preceded the 24-week treatment period, followed by a 2-week follow-up period. The patients that were enrolled in the study had to meet a number of inclusion criteria (namely criteria that had to be matched for a human subject to participate in the study), including (i) being 18 years of age and over, (ii) being diagnosed with moderate-to-severe Aqueous-Deficient Dry Eye (including Sjögren's Syndrome dry eye), as defined by acceptable clinical criteria, and (iii) a variety of other criteria. Patients that met certain exclusion criteria that related to certain ophthalmic conditions and use of other medications. Clinical outcome in improving KCS symptoms was determined through a variety of relevant ophthalmic parameters. In addition, adverse events were recorded for each patient throughout the study and all effects reported by patients were reported. By the time of filing this patent application the study was still ongoing. […] It should be noted that at this time of reporting of these events the study was still masked, namely it is not known whether the patients received CF101 or placebo and if CF101 than the dose of the drug.

The subject of test [4] is Male C57BL/6j mice. Put plainly: Concanavalin A mouse model treated with allosteric enhancer; erection observed. Type of test: in vivo. To be noted: 100 μg/kg orally 8 h after Con.A and 2 h before termination, no signs in control-untreated group. The method, then: Male C57BL/6j mice, 8 weeks of age, were injected intravenously (tail vein) with concanavalin A (Con.A) (20 mg/kg). twenty four hours after Con.A injection, levels of alanine aminotransferase (ALT) and aspirate aminotransferase (AST) were measured in the serum.
The allosteric compound, Luf6000 (also known as N-(3,4-dichloro-phenyl)-2-cyclohexyl-1H-imidazo[4,5-c]quinolin-4-amine), was orally administered at a dose of 100 μg/kg 8 h after Con.A administration and 2 h before termination.

Each structure is given as a SMILES string.

`CNC(=O)[C@H]1O[C@@H](n2cnc3c(NCc4cccc(I)c4)ncnc32)[C@H](O)[C@@H]1O` [CF101, N^6-(3-iodobenzyl)-adenosine-5′-N-methyluronamide]: the “erection or increase in sexual desire in patients” value is given as “some of the patients experienced erection or increase in sexual desire” in test [1]; “some of the patients experienced erection or increase in sexual desire” in test [2]; “some of the patients experienced erection or increase in sexual desire” in test [3] (oral CF101, patients with moderate to severe dry eye disease (summary statement)). For the same compound, the “period during which erection occurred every day after each intake” value in test [3] (patient) is listed as “about 10 days”. In addition, the “sexual potency reported by patient” value in test [3] (patient (code 104507), oral, twice daily, 0.1 mg or 1 mg, study still masked) is reported as “increase of sexual potency”. The “time after intake to unprovoked erection” value in test [3] (patient, after each CF101 intake) is on record as “around 30 minutes”. For the same compound, in test [3] (patient, oral, twice daily, 0.1 mg or 1 mg, study still masked), the “erection reported by patient after intake” value is recorded as “unprovoked erection”.

Turning to `Clc1ccc(Nc2nc3ccccc3c3[nH]c(C4CCCCC4)nc23)cc1Cl` [Luf6000, N-(3,4-dichloro-phenyl)-2-cyclohexyl-1H-imidazo[4,5-c]quinolin-4-amine], the “erection in treated mice” value is “erection was noticed” in test [4] and “exhibited erection” in test [4] (listed as LUF6000).
